Reference: US20070123546A1, “2-amino-7,8-dihydro-6H-pyrido[4,3-d]pyrimidin-5-ones” (Chiron Corporation, priority 2005, published 2007)

biological target: His-tagged N-terminal ATP binding domain (amino acid residues 9-236) of HSP90α (Homo sapiens, UniProt P07900); experiment: HSP90 inhibitor binding potency: TRF competition binding assay; settings: Table 1; competition with biotinylated radicicol
How it was run: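 Competition against biotinylated radicicol for binding to the His-tagged 9-236 ATP domain of HSP90α: 2 h, room temperature, HEPES/MgCl2/KCl/BSA buffer. Streptavidin capture, then europium-labeled anti-His antibody and enhancement solution; europium counts give IC50.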

| IC50 | SMILES |
| --- | --- |
| < 10 µM | Cc1nc(N)nc2c1C(=O)NC(c1ccc(F)cc1-c1ccc(F)nc1)C2 (centres unmarked) [Compound 17, 2-Amino-7-[4-fluoro-2-(6-fluoro-pyridin-3-yl)-phenyl]-4-methyl-7,8-dihydro-6H-pyrido[4,3-d]pyrimidin-5-one] |
| < 10 µM | Cc1nc(N)nc2c1C(=O)N[C@@H](c1ccc(F)cc1-c1cccnc1F)C2 [Compound 3, (R)-2-Amino-7-[4-fluoro-2-(2-fluoro-pyridin-3-yl)-phenyl]-4-methyl-7,8-dihydro-6H-pyrido[4,3-d]pyrimidin-5-one] |
| < 10 µM | Cc1ccc(-c2cc(F)ccc2C2Cc3nc(N)nc(C)c3C(=O)N2)c(F)c1 (centres unmarked) [Compound 29, 2-Amino-7-(5,2′-difluoro-4′-methyl-biphenyl-2-yl)-4-methyl-7,8-dihydro-6H-pyrido[4,3-d]pyrimidin-5-one] |

same assay, conditions: Table 2; competition with biotinylated radicicol

| SMILES | IC50 |
| --- | --- |
| COc1cccc(-c2ccccc2[C@H]2Cc3nc(N)ncc3C(=O)N2)n1 [Compound 43, (R)-2-Amino-7-[2-(6-methoxy-pyridin-2-yl)-phenyl]-7,8-dihydro-6H-pyrido[4,3-d]pyrimidin-5-one] | < 10 µM |
| COc1nc(-c2cc(F)ccc2[C@H]2Cc3nc(N)ncc3C(=O)N2)ccc1N [Compound 46, (R)-2-Amino-7-[2-(5-amino-6-methoxy-pyridin-2-y1)-4-fluoro-phenyl]-7,8-dihydro-6H-pyrido[4,3-d]pyrimidin-5-one] | < 10 µM |

The next lines start with the values.

| IC50 | SMILES |
| --- | --- |
| < 10 µM | COc1nc(-c2ccccc2[C@H]2Cc3nc(N)nc(C)c3C(=O)N2)ncc1F [Compound 64, (R)-2-Amino-7-[2-(5-fluoro-4-methoxy-pyrimidin-2-yl)-phenyl]-4-methyl-7,8-dihydro-6H-pyrido[4,3-d]pyrimidin-5-one] |
| < 10 µM | CCOc1nc(-c2cc(F)ccc2[C@H]2Cc3nc(N)ncc3C(=O)N2)cnc1N [Compound 83, (R)-2-Amino-7-[2-(5-amino-6-ethoxy-pyrazin-2-yl)-4-fluoro-phenyl]-7,8-dihydro-6H-pyrido[4,3-d]pyrimidin-5-one] |

same assay, conditions: Table 3; competition with biotinylated radicicol

| SMILES | IC50 |
| --- | --- |
| COc1cccc(-c2cc(F)ccc2[C@H]2Cc3nc(N)nc(C)c3C(=O)N2Cc2ccccc2)c1F [Compound 144, (R)-2-Amino-6-benzyl-7-(5,2′-difluoro-3′-methoxy-biphenyl-2-yl)-4-methyl-7,8-dihydro-6H-pyrido[4,3-d]pyriniidin-5-one] | > 10 µM |
| Cc1nc(N)nc2c1C(=O)N(Cc1ccccc1)[C@@H](c1ccc(F)cc1-c1ncc(Cl)c(O)n1)C2 [Compound 112, (R)-2-Amino-6-benzyl-7-[2-(5-chloro-4-hydroxy-pyrimidin-2-yl)-4-fluoro-phenyl]-4-methyl-7,8-dihydro-6H-pyrido[4,3-d]pyrimidin-5-one] | > 10 µM |
| COc1cccc(-c2cc(F)ccc2[C@H]2Cc3nc(N)nc(C)c3C(=O)N2Cc2cccc(Cl)c2)n1 [Compound 116, (R)-2-Amino-6-(3-chloro-benzyl)-7-[4-fluoro-2-(6-methoxy-pyridin-2-yl)-phenyl]-5-methyl-7,8-dihydro-6H-pyrido[4,3-d]pyrimidin-5-one] | < 10 µM |
| COc1nc(-c2cc(F)ccc2[C@H]2Cc3nc(N)nc(C)c3C(=O)N2Cc2ccccc2F)cnc1N [Compound 124, (R)-2-Amino-7-[2-(5-amino-6-methoxy-pyrazin-2-yl)-4-fluoro-phenyl]-6-(2-fluoro-benzyl)-4-methyl-7,8-dihydro-6H-pyrido[4,3-d]pyrimidin-5-one] | < 10 µM |
| C=CCN1C(=O)c2c(C)nc(N)nc2C[C@@H]1c1ccc(F)cc1-c1cnc(N)c(OC)n1 [Compound 105, (R)-6-Allyl-2-amino-7-[2-(5-amino-6-methoxy-pyrazin-2-yl)-4-fluoro-phenyl]-4-methyl-7,8-dihydro-6H-pyndo[4,3-d]pyrimidin-5-one] | < 10 µM |
| CCN1C(=O)c2c(C)nc(N)nc2C[C@@H]1c1ccc(F)cc1-c1cccnc1OC [Compound 107, (R)-2-Amino-6-ethyl-7-[4-fluoro-2-(2-methoxy-pyridin-3-yl)-phenyl]-4-methyl-7,8-dihydro-6H-pyrido[4,3-d]pyrimidin-5-one] | < 10 µM |
| COc1ncccc1-c1cc(F)ccc1[C@H]1Cc2nc(N)nc(C)c2C(=O)N1CCC(C)C [Compound 152, (R)-2-Amino-7-[4-fluoro-2-(2-methoxy-pyridin-3-yl)-phenyl]-4-methyl-6-(3-methyl-butyl)-7,8-dihydro-6H-pyrido[4,3-d]pyrimidin-5-one] | < 10 µM |
| COc1cncc(-c2cc(F)ccc2[C@H]2Cc3nc(N)nc(C)c3C(=O)N2CCO)n1 [Compound 113, (R)-2-Amino-7-[4-fluoro-2-(6-methoxy-pyrazin-2-yl)-phenyl]-6-(2-hydroxy-ethyl)-4-methyl-7,8-dihydro-6H-pyrido[4,3-d]pyrimidin-5-one] | < 10 µM |
| COc1cncc(-c2cc(F)ccc2C2Cc3nc(N)nc(C)c3C(=O)N2CCN)n1 (centres unmarked) [Compound 93, 2-Amino-6-(2-amino-ethyl)-7-[4-fluoro-2-(6-methoxy-pyrazin-2-yl)-phenyl]-4-methyl-7,8-dihydro-6H-pyrido[4,3-d]pyrimidin-5-one] | < 10 µM |
| Cc1nc(N)nc2c1C(=O)N(CCCNC(=O)OC(C)(C)C)[C@@H](c1ccc(F)cc1-c1cccnc1F)C2 [Compound 169, (3-{(R)-2-Amino-7-[4-fluoro-2-(2-fluoro-pyridin-3-yl)-phenyl]-4-methyl-5-oxo-7,8-dihydro-5H-pyrido[4,3-d]pyrimidin-6-yl}-propyl)-carbamic acid tert-butyl ester] | < 10 µM |
| COc1ncccc1-c1cc(F)ccc1[C@H]1Cc2nc(N)nc(C)c2C(=O)N1Cc1ccccc1 [Compound 135, (R)-2-Amino-6-benzyl-7-[4-fluoro-2-(2-methoxy-pyridin-3-yl)-phenyl]-4-methyl-7,8-dihydro-6H-pyrido[4,3-d]pyrimidin-5-one] | < 10 µM |
| COc1nc(-c2cc(F)ccc2[C@H]2Cc3nc(N)nc(C)c3C(=O)N2Cc2ccc(F)cc2)cnc1N [Compound 162, (R)-2-Amino-7-[2-(5-amino-6-methoxy-pyrazin-2-yl)-4-fluoro-phenyl]-6-(4-fluoro-benzyl)-4-methyl-7,8-dihydro-6H-pyrido[4,3-d]pyrimidin-5-one] | < 10 µM |

The remaining lines, values ahead:

| IC50 | SMILES |
| --- | --- |
| < 10 µM | COc1ncc(-c2cc(F)ccc2[C@H]2Cc3nc(N)nc(C)c3C(=O)N2)nc1OC [Compound 145, 2-Amino-7-[2-(5,6-dimethoxy-pyrazin-2-yl)-4-fluoro-phenyl]-4-methyl-7,8-dihydro-6H-pyrido[4,3-d]pyrimidin-5-one] |
| < 10 µM | Cc1nc(N)nc2c1C(=O)N[C@@H](c1ccc(F)cc1)C2 [Compound 102, (R)-2-Amino-7-(4-fluoro-phenyl)-4-methyl-7,8-dihydro-6H-pyrido[4,3-d]pyrimidin-5-one] |

same assay, conditions: Table 4; competition with biotinylated radicicol

| SMILES | IC50 |
| --- | --- |
| COc1cncc(-c2ccccc2[C@H]2Cc3nc(N)nc(C)c3C(=O)N2)n1 [Compound 194, (R)-2-Amino-7-[2-(6-methoxy-pyrazin-2-yl)-phenyl]-4-methyl-7,8-dihydro-6H-pyrido[4,3-d]pyrimidin-5-one] | < 10 µM |
| CCc1nc(N)nc2c1C(=O)N[C@@H](c1ccccc1-c1cncc(OC)n1)C2 [Compound 199, (R)-2-Amino-4-ethyl-7-[2-(6-methoxy-pyrazin-2-yl)-phenyl]-7,8-dihydro-6H-pyrido[4,3-d]pyrimidin-5-one] | < 10 µM |

Now from value to compound:

| IC50 | SMILES |
| --- | --- |
| < 10 µM | COc1nc(-c2ccccc2[C@H]2Cc3nc(N)nc(C)c3C(=O)N2)ccc1N [Compound 205, (R)-2-Amino-7-[2-(5-amino-6-methoxy-pyridin-2-yl)-phenyl]-4-methyl-7,8-dihydro-6H-pyrido[4,3-d]pyrimidin-5-one] |
| < 10 µM | CCOc1nc(-c2cc(F)ccc2[C@H]2Cc3nc(N)nc(C)c3C(=O)N2)cs1 [Compound 231, (R)-2-Amino-7-[2-(2-ethoxy-thiazol-4-yl)-4-fluoro-phenyl]-4-methyl-7,8-dihydro-6H-pyrido[4,3-d]pyrimidin-5-one] |
| < 10 µM | CCc1nc(N)nc2c1C(=O)N[C@@H](c1ccc(F)cc1-c1cccc(OC)n1)C2 [Compound 211, (R)-2-Amino-4-ethyl-7-[4-fluoro-2-(6-methoxy-pyridin-2-yl)-phenyl]-7,8-dihydro-6H-pyrido[4,3-d]pyrimidin-5-one] |
| < 10 µM | COc1nc(-c2ccccc2[C@H]2Cc3nc(N)nc(C)c3C(=O)N2)ncc1C [Compound 221, (R)-2-Amino-7-[2-(4-methoxy-5-methyl-pyrimidin-2-yl)-phenyl]-4-methyl-7,8-dihydro-6H-pyrido[4,3-d]pyrimidin-5-one] |
| < 10 µM | COc1cnc(-c2cc(F)ccc2[C@H]2Cc3nc(N)nc(C)c3C(=O)N2)nc1OC [Compound 185, (R)-2-Amino-7-[2-(4,5-dimethoxy-pyrimidin-2-yl)-4-fluoro-phenyl]-4-methyl-7,8-dihydro-6H-pyrido[4,3-d]pyrimidin-5-one] |
| < 10 µM | CCOc1nc(-c2cc(F)ccc2[C@H]2Cc3nc(N)ncc3C(=O)N2)cnc1N [Compound 214, (R)-2-Amino-7-[2-(5-amino-6-ethoxy-pyrazin-2-yl)-4-fluoro-phenyl]-7,8-dihydro-6H-pyrido[4,3-d]pyrimidin-5-one] |
| < 10 µM | COc1nc(-c2ccccc2[C@H]2Cc3nc(N)nc(C)c3C(=O)N2)cs1 [Compound 188, (R)-2-Amino-7-[2-(2-methoxy-thiazol-4-yl)-phenyl]-4-methyl-7,8-dihydro-6H-pyrido[4,3-d]pyrimidin-5-one] |
| < 10 µM | COc1nc(-c2ccccc2[C@H]2Cc3nc(N)nc(C)c3C(=O)N2)ncc1F [Compound 204, (R)-2-Amino-7-[2-(5-fluoro-4-methoxy-pyrimidin-2-yl)-phenyl]-4-methyl-7,8-dihydro-6H-pyrido[4,3-d]pyrimidin-5-one] |
| < 10 µM | COc1cccc(-c2cc(F)ccc2[C@H]2Cc3nc(N)nc(C)c3C(=O)N2)c1OC [Compound 213, (R)-2-Amino-7-(5-fluoro-2′,3′-dimethoxy-biphenyl-2-yl)-4-methyl-7,8-dihydro-6H-pyrido[4,3-d]pyrimidin-5-one] |
